Measurements reported in patent publication US20240254138A1, “TRICYCLIC PYRIMIDINES AS CYCLIN-DEPENDENT KINASE 7 (CDK7) INHIBITORS” (JANSSEN PHARMACEUTICA NV, priority 2021, published 2024).
Like-named read-outs stand apart in the source and are kept apart here.

Assays:
[1] = system: RNA Polymerase II Serine 5 phosphorylation (Rpb1 CTD, downstream substrate of CDK7) in A549 cells; assay: Imaging-based cellular RNA PolII Ser5 phosphorylation assay in A549 cells; format: cell-based, human; conditions: Homo sapiens, A549, A549 cells, wild-type CDK7; RNA PolII Ser5 phosphorylation; averaged over all measurements; read-out: CDK7_A549 Wild-type CDK7 (pIC50) (converted)
Outline: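 A549 cells, seeded 1000/well in DMEM with 1% FBS and cultured 20 h, were treated with compound for 3 h at 37 °C. Ser5-phospho-Rpb1 CTD detected by immunofluorescence imaging after fixation and methanol permeabilization; IC50 from curve fit normalized to DMSO and 10 μM reference-compound controls.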

[2] = system: RNA Polymerase II Serine 5 phosphorylation in A549 cells overexpressing CDK7-mutant (C312S); assay: Imaging-based cellular RNA PolII Ser5 phosphorylation assay in A549 cells overexpressing CDK7-mutant (C312S); format: cell-based, human; conditions: Homo sapiens, A549, A549 cells overexpressing CDK7-mutant (C312S); RNA PolII Ser5 phosphorylation; averaged over all measurements; read-out: CDK7_A549 mutant hCDK7(pIC50) (converted)
Outline: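 A549 cells overexpressing CDK7 C312S (with endogenous wild-type CDK7) were treated with compound for 3 h at 37 °C in 1% FBS medium. Phospho-Rpb1 CTD Ser5 was immunostained after fixation and imaged. IC50 came from curve fit of % control, normalised to DMSO and 10 μM reference-compound controls.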

[3] = molecular target: CDK7/cyclinH/MAT1 trimeric complex (Homo sapiens, UniProt P50613); assay: In vitro CDK7 assay, potency of irreversible covalent inhibitors (kinact/KI), coupled PK/LDH ADP readout at 340 nm; conditions: for Ki: CDK7 (20 nM enz.) (KI, μM); for kinact: read-out: CDK7 (20 nM enz.) (kinact, s^−1), 20 nM enzyme
[4] = read-out: CDK7 (20 nM enz.) (kinact/KI, M^−1*s^−1), 20 nM enzyme
[5] = read-out: CDK7 (20 nM enz.) (kobs/[I], M^−1*s^−1), 20 nM enzyme

CDK7/cyclinH/MAT1 trimeric complex, sequence (P50613 whole entry): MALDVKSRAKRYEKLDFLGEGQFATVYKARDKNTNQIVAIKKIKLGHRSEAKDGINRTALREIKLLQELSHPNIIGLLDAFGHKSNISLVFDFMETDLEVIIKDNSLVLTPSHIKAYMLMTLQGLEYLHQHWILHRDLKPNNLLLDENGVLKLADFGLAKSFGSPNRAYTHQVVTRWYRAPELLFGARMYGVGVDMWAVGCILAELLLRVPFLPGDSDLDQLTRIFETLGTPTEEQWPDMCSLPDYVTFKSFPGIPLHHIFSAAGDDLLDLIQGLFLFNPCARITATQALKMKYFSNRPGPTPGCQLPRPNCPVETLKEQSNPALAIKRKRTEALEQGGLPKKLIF
CDK7/cyclinH/MAT1 trimeric complex, sequence (P51946 whole entry partner): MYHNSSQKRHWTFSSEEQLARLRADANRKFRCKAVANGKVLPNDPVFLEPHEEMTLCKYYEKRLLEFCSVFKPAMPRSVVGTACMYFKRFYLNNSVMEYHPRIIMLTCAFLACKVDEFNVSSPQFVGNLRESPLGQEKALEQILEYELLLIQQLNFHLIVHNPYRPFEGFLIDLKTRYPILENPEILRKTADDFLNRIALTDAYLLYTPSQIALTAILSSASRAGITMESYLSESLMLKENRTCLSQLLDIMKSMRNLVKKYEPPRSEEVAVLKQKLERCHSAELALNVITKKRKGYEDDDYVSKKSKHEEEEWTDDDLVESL
CDK7/cyclinH/MAT1 trimeric complex, sequence (P51948 whole entry partner): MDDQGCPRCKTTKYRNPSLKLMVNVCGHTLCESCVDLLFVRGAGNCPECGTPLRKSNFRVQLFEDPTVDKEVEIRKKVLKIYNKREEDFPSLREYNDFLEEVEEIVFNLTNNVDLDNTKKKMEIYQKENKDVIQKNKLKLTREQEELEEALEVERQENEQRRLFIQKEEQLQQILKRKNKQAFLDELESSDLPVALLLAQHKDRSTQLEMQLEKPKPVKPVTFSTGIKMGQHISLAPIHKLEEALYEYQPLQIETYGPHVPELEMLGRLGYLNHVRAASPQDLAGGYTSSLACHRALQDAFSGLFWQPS

SMILES | IC50 [1] | IC50 [2] | kinact/KI [3, 4] | Ki ([3]; 20 nM enzyme) | kinact [3] | kinact/KI [3, 5] | CDK7 (20 nM enz.) (kobs/[I], M^−1*s^−1) ([3]; 20 nM enzyme) | CDK7 (20 nM enz.) (kinact, s^−1) ([3]; 20 nM enzyme)
C=CC(=O)N1CC(N2CC[C@H](c3cc4c(c(C)n3)O[C@H](C)c3c(N5CCOCC5)ccnc3N4)C2)C1 (single isomer, unassigned) [Compound 224] | 3.98 µM | > 10 µM | 3 M⁻¹ s⁻¹ | – | – | – | – | –
C=CC(=O)N1CC[C@@H](N2CC(c3cc(C)c4c(c3)Nc3nccc(N5CCOCC5)c3[C@H](C)O4)C2)C1 (single isomer, unassigned) [Compound 227] | 0.724 µM | > 10 µM | 22.7 M⁻¹ s⁻¹ | 3.01 µM | 6.83e-05 s⁻¹ | – | – | –
C=CC(=O)N1CC[C@@H](N2CC(c3cc(C)c4c(c3)Nc3nccc(N5CCOCC5)c3[C@@H](C)O4)C2)C1 (single isomer, unassigned) [Compound 230] | 0.02 µM | 6.76 µM | – | – | – | 791 M⁻¹ s⁻¹ | – | –
C=CC(=O)N1CC[C@H](N2CC(c3cc(C)c4c(c3)Nc3nccc(N5CCOCC5)c3[C@H](C)O4)C2)C1 (single isomer, unassigned) [Compound 231] | 0.38 µM | > 10 µM | 37.8 M⁻¹ s⁻¹ | 1.61 µM | 6.1e-05 s⁻¹ | – | – | –
C=CC(=O)N1CC(N2CCC(c3ccc4c(c3)Nc3nccc(-c5cnn(C)c5)c3[C@H](C)O4)CC2)C1 (single isomer, unassigned) [Compound 232] | 4.17 µM | > 10 µM | 11.3 M⁻¹ s⁻¹ | 10.1 µM | 0.000115 s⁻¹ | – | – | –
C=CC(=O)N1CC(N2CCC(c3ccc4c(c3)Nc3nccc(-c5cnn(C)c5)c3[C@@H](C)O4)CC2)C1 (single isomer, unassigned) [Compound 233] | 0.0282 µM | 8.71 µM | – | – | – | 1450 M⁻¹ s⁻¹ | – | –
C=CC(=O)N1CC[C@H](N2CC(c3cc4c(c(C(F)(F)F)n3)OCc3c(N5CCOCC5)ccnc3N4)C2)C1 (single isomer, unassigned) [Compound 234] | 0.0955 µM | 8.51 µM | – | – | – | – | 610.385 M⁻¹ s⁻¹ | –
C=CC(=O)N1CC[C@H](N2CC(c3cc4c(c(C(F)(F)F)c3)OCc3c(N5CCOCC5)ccnc3N4)C2)C1 (single isomer, unassigned) [Compound 238] | 0.0407 µM | 3.31 µM | – | – | – | 758 M⁻¹ s⁻¹ | – | –
C=CC(=O)N1CC[C@H](N2CC(c3cc(C)c4c(c3)Nc3nccc(N5CCOCC5)c3[C@@H](C)O4)C2)C1 (single isomer, unassigned) [Compound 239] | 0.0437 µM | 7.08 µM | – | – | – | 1040 M⁻¹ s⁻¹ | – | –
C=CC(=O)N1CC[C@@H](N2CC(c3cc4c(c(C(F)(F)F)c3)OCc3c(N5CCOCC5)ccnc3N4)C2)C1 (single isomer, unassigned) [Compound 240] | 0.055 µM | 5.13 µM | 1490 M⁻¹ s⁻¹ | 0.0242 µM | 3.61e-05 s⁻¹ | – | – | –
C=CC(=O)N1CC[C@@H](N2CC(c3cc4c(c(C(F)(F)F)n3)OCc3c(N5CCOCC5)ccnc3N4)C2)C1 (single isomer, unassigned) [Compound 241] | 0.0955 µM | 10.7 µM | 1380 M⁻¹ s⁻¹ | 0.0269 µM | – | – | – | 3.715e-05 s⁻¹
C=CC(=O)N1CC(N2CC[C@@H](c3cc4c(c(C)n3)O[C@@H](C)c3c(N5CCOCC5)ccnc3N4)C2)C1 (single isomer, unassigned) [Compound 243] | 0.126 µM | > 10 µM | 490 M⁻¹ s⁻¹ | 0.0802 µM | 3.93e-05 s⁻¹ | – | – | –
C=CC(=O)N1CC(N2CC[C@@H](c3cc4c(c(C)n3)O[C@H](C)c3c(N5CCOCC5)ccnc3N4)C2)C1 (single isomer, unassigned) [Compound 245] | 0.0562 µM | > 10 µM | 645 M⁻¹ s⁻¹ | 0.0559 µM | 3.61e-05 s⁻¹ | – | – | –
C=CC(=O)N1CC(N2CCC(c3cc4c(c(C)n3)O[C@H](C)c3c(C5CCOCC5)ccnc3N4)CC2)C1 (single isomer, unassigned) [Compound 246] | ~0.0288 µM | > 10 µM | 887 M⁻¹ s⁻¹ | 0.0946 µM | 8.4e-05 s⁻¹ | – | – | –
C=CC(=O)N1CC(N2CCC(c3cc4c(c(C)n3)O[C@@H](C)c3c(C5CCOCC5)ccnc3N4)CC2)C1 (single isomer, unassigned) [Compound 247] | 0.776 µM | > 3.98 µM | 34.8 M⁻¹ s⁻¹ | 1.57 µM | 5.48e-05 s⁻¹ | – | – | –
C=CC(=O)N1CC(N2CC(c3cc(C)c4c(c3)Nc3nccc(C5CCOCC5)c3[C@@H](C)O4)C2)C1 (single isomer, unassigned) [Compound 251] | 0.0437 µM | > 10 µM | – | – | – | 1110 M⁻¹ s⁻¹ | – | –
C=CC(=O)N1CC(N2CC(c3cc(C)c4c(c3)Nc3nccc(C5CCOCC5)c3[C@H](C)O4)C2)C1 (single isomer, unassigned) [Compound 252] | 2.51 µM | > 10 µM | 12 M⁻¹ s⁻¹ | 25.5 µM | 0.000306 s⁻¹ | – | – | –
C=CC(=O)N1CC(N2CCCN(C)[C@H](c3cc(C)c4c(c3)Nc3nccc(C5CCOCC5)c3CO4)C2)C1 (single isomer, unassigned) [Compound 255] | 3.02 µM | > 10 µM | 3.33 M⁻¹ s⁻¹ | 10.7 µM | 3.55e-05 s⁻¹ | – | – | –
C=CC(=O)N1CC(N2CC[C@@H](c3cc(C)c4c(c3)Nc3nccc(C5CCOCC5)c3CO4)N(C)CC2)C1 (single isomer, unassigned) [Compound 256] | 0.0537 µM | 8.32 µM | 811 M⁻¹ s⁻¹ | 0.0827 µM | 6.71e-05 s⁻¹ | – | – | –
C=CC(=O)N1CC(N2CC[C@H](c3cc(C)c4c(c3)Nc3nccc(C5CCOCC5)c3CO4)N(C)CC2)C1 (single isomer, unassigned) [Compound 257] | 0.0447 µM | 7.24 µM | 1380 M⁻¹ s⁻¹ | 0.0574 µM | 7.95e-05 s⁻¹ | – | – | –

Further lines, results first:

IC50 [1] | IC50 [2] | kinact/KI [3, 4] | Ki ([3]; 20 nM enzyme) | kinact [3] | kinact/KI [3, 5] | CDK7 (20 nM enz.) (kobs/[I], M^−1*s^−1) ([3]; 20 nM enzyme) | CDK7 (20 nM enz.) (kinact, s^−1) ([3]; 20 nM enzyme) | SMILES
0.0214 µM | 6.46 µM | – | – | – | 619 M⁻¹ s⁻¹ | – | – | C#Cc1cc(C2CCN(C3CN(C(=O)C=C)C3)CC2)cc2c1O[C@@H](C)c1c(N3CCOCC3)ccnc1N2 (single isomer, unassigned) [Compound 258]
> 10 µM | > 10 µM | 54.2 M⁻¹ s⁻¹ | 0.675 µM | 3.66e-05 s⁻¹ | – | – | – | C=CC(=O)N1CC(N2CCCN(C)[C@@H](c3cc(C)c4c(c3)Nc3nccc(C5CCOCC5)c3CO4)C2)C1 (single isomer, unassigned) [Compound 259]
0.955 µM | > 3.98 µM | 34.9 M⁻¹ s⁻¹ | 1.11 µM | 3.89e-05 s⁻¹ | – | – | – | C=CC(=O)N1CC(N2CCC(c3cc4c(cn3)O[C@@H](C)c3c(N5CCOCC5)ccnc3N4)CC2)C1 (single isomer, unassigned) [Compound 261]
0.117 µM | > 10 µM | 714 M⁻¹ s⁻¹ | 0.0518 µM | 3.7e-05 s⁻¹ | – | – | – | C=CC(=O)N1CC(N2CC(c3cc4c(c(C)n3)O[C@H](C)c3c(N5CCOCC5)ccnc3N4)C2)C1 (single isomer, unassigned) [Compound 270]
0.692 µM | > 10 µM | 59.6 M⁻¹ s⁻¹ | 0.683 µM | 4.07e-05 s⁻¹ | – | – | – | CC#CC(=O)N1CC[C@H](N2CC(c3cc(C)c4c(c3)Nc3nccc(N5CCOCC5)c3[C@H](C)O4)C2)C1 (single isomer, unassigned) [Compound 281]
0.0309 µM | > 10 µM | 1260 M⁻¹ s⁻¹ | 0.0397 µM | 5.01e-05 s⁻¹ | – | – | – | C=CC(=O)N1CC[C@@H](N2CCC(c3cc4c(c(C)n3)OCc3c(N5CCOCC5)ccnc3N4)CC2)C1 (single isomer, unassigned) [Compound 282]
0.0692 µM | > 10 µM | 381 M⁻¹ s⁻¹ | 0.187 µM | 7.12e-05 s⁻¹ | – | – | – | C=CC(=O)N1CC[C@H](N2CCC(c3cc4c(c(C)n3)OCc3c(N5CCOCC5)ccnc3N4)CC2)C1 (single isomer, unassigned) [Compound 283]
2.04 µM | > 10 µM | 17.4 M⁻¹ s⁻¹ | 2 µM | 3.49e-05 s⁻¹ | – | – | – | CC#CC(=O)N1CC[C@@H](N2CC(c3cc(C)c4c(c3)Nc3nccc(N5CCOCC5)c3[C@H](C)O4)C2)C1 (single isomer, unassigned) [Compound 284]
0.126 µM | > 10 µM | 324 M⁻¹ s⁻¹ | 0.146 µM | 4.74e-05 s⁻¹ | – | – | – | C=CC(=O)N1CC[C@@H](N2CC(c3cc4c(c(C5CC5)n3)OCc3c(-c5cnn(C)c5)ccnc3N4)C2)C1 (single isomer, unassigned) [Compound 286]
0.129 µM | > 10 µM | 622 M⁻¹ s⁻¹ | 0.188 µM | 0.000117 s⁻¹ | – | – | – | C=CC(=O)N1CC[C@H](N2CC(c3cc4c(c(C5CC5)n3)OCc3c(-c5cnn(C)c5)ccnc3N4)C2)C1 (single isomer, unassigned) [Compound 287]
0.129 µM | 10 µM | 619 M⁻¹ s⁻¹ | 0.0411 µM | 2.54e-05 s⁻¹ | – | – | – | CC#CC(=O)N1CC[C@H](N2CC(c3cc(C)c4c(c3)Nc3nccc(N5CCOCC5)c3[C@@H](C)O4)C2)C1 (single isomer, unassigned) [Compound 288]
